From US10407383B2, “Cyclopentene and cyclopentadiene compounds for controlling invertebrate pests” (BASF SE, priority 2014, dated 2019)

Tests used:
Assay type in all cases: in vivo
[1] = tested on: green peach aphid (Myzus persicae); assay: Green peach aphid (Myzus persicae), systemic, 96-well plates with liquid artificial diet under membrane; details: 72 h, adult aphids on treated diet, 3 days, read-out: mortality in comparison with untreated controls
Text: B.1 Green Peach Aphid (Myzus persicae)
For evaluating control of green peach aphid (Myzus persicae) through systemic means the test unit consisted of 96-well-microtiter plates containing liquid artificial diet under an artificial membrane.
The compounds were formulated using a solution containing 75% v/v water and 25% v/v DMSO. Different concentrations of formulated compounds were pipetted into the aphid diet, using a custom built pipetter, at two replications.
After application, 5-8 adult aphids were placed on the artificial membrane inside the microtiter plate wells. The aphids were then allowed to suck on the treated aphid diet and incubated at about 23±1° C. and about 50±5% relative humidity for 3 days. Aphid mortality and fecundity was then visually assessed.

[2] = tested on: vetch aphid (Megoura viciae); assay: Vetch aphid (Megoura viciae), contact or systemic, broad bean leaf disks in 24-well plates; details: foliar, 120 h, adult aphids on sprayed leaf disks, 5 days, read-out: mortality in comparison with untreated controls
Procedure: B.2 Vetch Aphid (Megoura viciae)
For evaluating control of vetch aphid (Megoura viciae) through contact or systemic means the test unit consisted of 24-well-microtiter plates containing broad bean leaf disks.
The compounds were formulated using a solution containing 75% v/v water and 25% v/v DMSO. Different concentrations of formulated compounds were sprayed onto the leaf disks at 2.5 μl, using a custom built micro atomizer, at two replications.
After application, the leaf disks were air-dried and 5-8 adult aphids placed on the leaf disks inside the microtiter plate wells. The aphids were then allowed to suck on the treated leaf disks and incubated at about 23±1° C. and about 50±5% relative humidity for 5 days. Aphid mortality and fecundity was then visually assessed.

[3] = tested on: tobacco budworm (Heliothis virescens); assay: Tobacco budworm (Heliothis virescens), insect diet with eggs in 96-well plates; details: 120 h, egg and larval mortality, 5 days, read-out: mortality in comparison with untreated controls
Procedure: B.3 Tobacco Budworm (Heliothis virescens)
For evaluating control of tobacco budworm (Heliothis virescens) the test unit consisted of 96-well-microtiter plates containing an insect diet and 15-25 H. virescens eggs.
The compounds were formulated using a solution containing 75% v/v water and 25% v/v DMSO. Different concentrations of formulated compounds were sprayed onto the insect diet at 10 μl, using a custom built micro atomizer, at two replications.
(§1) After application, microtiter plates were incubated at about 28±1° C. and about 80±5% relative humidity for 5 days. Egg and larval mortality was then visually assessed.

[4] = tested on: boll weevil (Anthonomus grandis); assay: Boll weevil (Anthonomus grandis), insect diet with eggs in 24-well plates; details: 120 h, egg and larval mortality, 5 days, read-out: mortality in comparison with untreated controls
Procedure: B.4 Boll Weevil (Anthonomus grandis)
For evaluating control of boll weevil (Anthonomus grandis) the test unit consisted of 24-well-microtiter plates containing an insect diet and 20-30 A. grandis eggs.
The compounds were formulated using a solution containing 75% v/v water and 25% v/v DMSO. Different concentrations of formulated compounds were sprayed onto the insect diet at 20 μl, using a custom built micro atomizer, at two replications.
After application, microtiter plates were incubated at about 23±1° C. and about 50±5% relative humidity for 5 days. Egg and larval mortality was then visually assessed.

[5] = tested on: Mediterranean fruitfly (Ceratitis capitata); assay: Mediterranean fruitfly (Ceratitis capitata), insect diet with eggs in microtiter plates; details: 120 h, egg and larval mortality, 5 days, read-out: mortality in comparison with untreated controls
Procedure: B.5 Mediterranean Fruitfly (Ceratitis capitata)
For evaluating control of Mediterranean fruitfly (Ceratitis capitata) the test unit consisted of microtiter plates containing an insect diet and 50-80 C. capitata eggs.
The compounds were formulated using a solution containing 75% v/v water and 25% v/v DMSO. Different concentrations of formulated compounds were sprayed onto the insect diet at 5 μl, using a custom built micro atomizer, at two replications.
as §1

[6] = tested on: Diamond Back Moth (Plutella Xylostella); assay: Diamond back moth (Plutella xylostella), cabbage leaf dip, 3rd instar larvae; details: foliar, 72 hours after treatment, read-out: mortality in comparison with untreated controls
Procedure: B.6 Diamond Back Moth (Plutella Xylostella)
The active compound was dissolved at the desired concentration in a mixture of 1:1 (vol:vol) distilled water:aceteone. Surfactant (Kinetic HV) was added at a rate of 0.01% (vol/vol). The test solution was prepared at the day of use.
Leaves of cabbage were dipped in test solution and air-dried. Treated leaves were placed in petri dishes lined with moist filter paper and inoculated with ten 3rd instar larvae. Mortality was recorded 72 hours after treatment. Feeding damages were also recorded using a scale of 0-100%.

[7] = tested on: Orchid Thrips (Dichromothrips Corbetti); assay: Orchid thrips (Dichromothrips corbetti), floral-immersion technique; details: adult thrips, 72 hours after treatment, read-out: mortality in comparison with untreated controls
Procedure: B.7 Orchid Thrips (Dichromothrips Corbetti)
Dichromothrips corbetti adults used for bioassay were obtained from a colony maintained continuously under laboratory conditions. For testing purposes, the test compound was diluted in a 1:1 mixture of acetone:water (vol:vol), plus Kinetic HV at a rate of 0.01% v/v.
Thrips potency of each compound was evaluated by using a floral-immersion technique. All petals of individual, intact orchid flowers were dipped into treatment solution and allowed to dry in Petri dishes. Treated petals were placed into individual re-sealable plastic along with about 20 adult thrips. All test arenas were held under continuous light and a temperature of about 28° C. for duration of the assay. After 3 days, the numbers of live thrips were counted on each petal. The percent mortality was recorded 72 hours after treatment.

[8] = tested on: Rice Green Leafhopper (Nephotettix virescens); assay: Rice green leafhopper (Nephotettix virescens), sprayed potted rice seedlings; details: adults, after 72 hours, read-out: mortality in comparison with untreated controls
Procedure: B.8 Rice Green Leafhopper (Nephotettix virescens)
Rice seedlings were cleaned and washed 24 hours before spraying. The active compounds were formulated in 1:1 acetone:water (vol:vol), and 0.01% vol/vol surfactant (Kinetic HV) was added. Potted rice seedlings were sprayed with 5-6 ml test solution, air dried, covered with Mylar cages and inoculated with 10 adults. Treated rice plants were kept at about 28-29° C. and relative humidity of about 50-60%. Percent mortality was recorded after 72 hours.

[9] = tested on: Red Spider Mite (Tetranychus kanzawai); assay: Red spider mite (Tetranychus kanzawai), sprayed potted cowpea beans; details: 72 hours after treatment, read-out: mortality in comparison with untreated controls
Procedure: B.9 Red Spider Mite (Tetranychus kanzawai)
The active compound was dissolved at the desired concentration in a mixture of 1:1 (vol:vol) distilled water:acetone. Surfactant (Kinetic HV) was added at a rate of 0.01% (vol/vol). The test solution was prepared at the day of use.
Potted cowpea beans of 4-5 days of age were cleaned with tap water and sprayed with 1-2 ml of the test solution using air driven hand atomizer. The treated plants were allowed to air dry and afterwards inoculated with 30 or more mites by clipping a cassava leaf section from rearing population. Treated plants were placed inside a holding room at about 25-27° C. and about 50-60% relative humidity. Percent mortality was assessed 72 hours after treatment.

O=C(NC1CS(=O)(=O)C1)c1ccc(C2=CC(c3cc(Cl)cc(Cl)c3)(C(F)(F)F)C=C2)cc1Cl (stereo not shown) [Compound 2-12, 2-Chloro-4-[3-(3,5-dichlorophenyl)-3-(trifluoromethyl)cyclopenta-1,4-dien-1-yl]-N-(1,1-dioxothietan-3-yl)benzamide]
≥ 75%: mortality at 2500 ppm [1] | mortality at 2500 ppm [2] | mortality at 2500 ppm [3] | mortality at 2500 ppm [4] | mortality at 2500 ppm [5] | mortality at 500 ppm [6] | mortality at 500 ppm [7] | mortality at 500 ppm [8] | mortality at 500 ppm [9]

O=C(NC1CS(=O)(=O)C1)c1ccc(C2=CCC(c3cc(Cl)cc(Cl)c3)(C(F)(F)F)C2)cc1Cl (stereo not shown) [Compound 3-9, 2-Chloro-4-[4-(3,5-dichlorophenyl)-4-(trifluoromethyl)cyclopenten-1-yl]-N-(1,1-dioxothietan-3-yl)benzamide]
≥ 75%: mortality at 2500 ppm [1] | mortality at 2500 ppm [2] | mortality at 2500 ppm [3] | mortality at 2500 ppm [4] | mortality at 2500 ppm [5] | mortality at 500 ppm [6] | mortality at 500 ppm [7] | mortality at 500 ppm [8] | mortality at 500 ppm [9]

O=C(O)c1ccc(C2=CCC(c3cc(Cl)cc(Cl)c3)(C(F)(F)F)C2)cc1Cl (stereo not shown) [Compound 3-11, 2-Chloro-4-[4-(3,5-dichlorophenyl)-4-(trifluoromethyl)cyclopenten-1-yl]benzoic acid]
≥ 75%: mortality at 2500 ppm [4]

O=C(O)c1ccc(C2=CC(c3cc(Cl)cc(Cl)c3)(C(F)(F)F)CC2)cc1Cl (stereo not shown) [Compound 1-12, 2-Chloro-4-[3-(3,5-dichlorophenyl)-3-(trifluoromethyl)cyclopenten-1-yl]benzoic acid]
≥ 75%: mortality at 2500 ppm [4]

COC(=O)c1ccc(C2=CC(c3cc(Cl)cc(Cl)c3)(C(F)(F)F)CC2)cc1Cl (stereo not shown) [Compound 1-13, Methyl 2-chloro-4-[3-(3,5-dichlorophenyl)-3-(trifluoromethyl)cyclopenten-1-yl]-benzoate]
≥ 75%: mortality at 2500 ppm [4] | mortality at 500 ppm [6]

O=C(NC1CS(=O)(=O)C1)c1ccc(C2=CC(c3cc(Cl)cc(Cl)c3)(C(F)(F)F)CC2)cc1Cl (stereo not shown) [Compound 1-11, 2-Chloro-4-[3-(3,5-dichlorophenyl)-3-(trifluoromethyl)cyclopenten-1-yl]-N-(1,1-dioxothietan-3-yl)benzamide]
≥ 75%: mortality at 2500 ppm [1] | mortality at 2500 ppm [2] | mortality at 2500 ppm [3] | mortality at 2500 ppm [4] | mortality at 2500 ppm [5] | mortality at 500 ppm [6] | mortality at 500 ppm [7] | mortality at 500 ppm [8] | mortality at 500 ppm [9]
